Measured values from US20180284123A1, “BARCODED RAPID ASSAY PLATFORM USEFUL FOR EFFICIENT ANALYSIS OF CANDIDATE MOLECULES AND METHODS OF MAKING AND USING THE PLATFORM” (California Institute of Technology, priority 2017, published 2018).
Numbered stars: 1 amine (or outer) side, 2 acyl side, 3 side chain; on linkers, the order of the positions; unused ones are H or OH. Bridge positions count the residues as written; N and C are the ends. Square brackets hold non-standard residues; d marks the D form. Triazole bridges read from a SMILES are 1,4-linked. Peptide text beside a SMILES is read from it. * marks the point of attachment. Biotin = O=C1N[C@H]2[C@H](CS[C@H]2CCCCC(=O)*)N1; Lys(N3) = [N-]=[N+]=NCCCC[C@H](N)C(=O)O; Ethylenediamine = C(CN[*:2])N[*:1]; PEG5 = NCCOCCOCCOCCOCCOCCC(=O)O; Pra = C#CC[C@H](N)C(=O)O

Target: T1, KRAS (Homo sapiens, UniProt P01116)
T1 construct: His6-tagged human KRas Isoform 4B (residues 1-169); His6; made in house; host or cells: E. coli BL21(DE3), PQE80 vector
Experiment: B-RAP surface immunofluorescent assay, PCC ligand KRas EC50
Assay type: binding
Conditions: for Avg F635, Full Centroid / Avg F635, Full Lane / avg F635, Left Part Centroid / avg F635, Middle Part Centroid / avg F635, Right Part Centroid: 10 μM KRas well of plate #1, pixel by pixel; for avg F635, Left Part Centroid: left part of centroid; for avg F635, Middle Part Centroid: middle part of centroid; for avg F635, Right Part Centroid: right part of centroid; for EC50: 13-point KRas concentration series, each point in decaplicate, Hill coefficient=1
Procedure: The barcode patterned microchip surface was partitioned into 16 individual microwells using a pre-fabricated PDMS slab. Individual biotinylated PCC candidates were complexed to specific SAC-DNA conjugates, combined into a cocktail, and then self-assembled, via DNA hybridization, onto designated barcode stripes (FIGS. 2-4). Incubation with a specific concentration of the target protein preceded incubation with a primary capture antibody and then a fluorophore-conjugated secondary detection antibody. During assay execution, each well represents a different target concentration or assay condition. Once developed, the fluorescence of the barcodes is digitized using a GenePix 4400A array scanner, with an excitation laser power optimized to a power level of 40% (60 W), which maximizes detection sensitivity while also minimizing signal saturation. Data extraction occurs using 10 μm radius circles, taken along the length of a barcode stripe. A fluorescence signal representing the average of all the pixels within a given circle is collected. A total of ten circles (data-blocks) are measured along a 180 μm span of the middle portion for each individual barcode lane in a given well. 10 μM KRas protein gave an average F635 of 47,868.7, with a standard deviation of 4154.53. 1 μM KRas protein gave an average F635 of 11437.6, with a standard deviation of 1602.202. 100 nM KRas protein gave an average F635 of 1780.6, with a standard deviation of 236.38. This illustrates the intensity across a stripe compared to the intensity from the data-block extraction. After extraction the data is background corrected. The background signal arises from (a) non-specific binding of the primary and secondary antibodies (independent of [KRas]), but can vary across different barcode stripes), and (b) non-specific binding of KRas protein ([KRas] dependent). Background (a) was assessed by measuring the average signal in the null protein well for each stripe. Background (b) was assessed by measuring the average fluorescence for the dummy ligand (Biotin* probe) that was in each well. The background subtracted data was then graphed in Graphpad Prism 7 and fitted to a sigmoidal curve (Hill coefficient=1).
Measurement of PCC Ligand KRas EC50 with the Barcode Rapid Assay Platform
Protein Incubation Buffer: Tris-buffered saline (TBS)+0.05% Tween20 (TBST)
A pre-fabricated PDMS template was aligned onto the DNA barcode microchip, and the microchip was taped into a 10 cm petri dish. The wells on the platform were wet with 50 μL PBST before filling with blocking buffer and placing into a 37° C. incubator for 1 hr. Concurrently, 40 μL 1% BSA in PBS solutions containing 750 nM of a SAC-DNA conjugate and 3.75 μM of one biotinylated PCC ligand or biotin-A20-Cy3 blank were prepared for each SAC-DNA conjugate. The biotinylated ligands were allowed to complex with the SAC protein for one hour before pooling the SAC-DNA-ligand solutions (final [SAC-DNA-ligand conjugates]=50 nM). The blocking buffer was aspirated and each well was loaded with the SAC-DNA-ligand conjugates cocktail for hybridization with the DNA barcode at 37° C. for one hour. The wells were washed with PBST (3×) before loading serially diluted solutions of KRas protein in protein buffer (0 to 400 μM). After shaking at RT for one hour, the wells were rinsed with PBST (5×), making sure to pipet up/down with the first addition of PB ST. A (100:1) dilution of CST rabbit anti-Ras Ab (#39655) in 1° ab buffer was added to each well before shaking at RT for one hour. After rinsing the wells with PBST (3×), the wells were loaded with a (200:1) dilution of Abcam goat anti-rabbit-Alexafluor 647 linked ab (ab150079) in 2° ab buffer before shaking at RT for one hour. A final rinse of the wells with PBST (3×) proceeded peeling off the PDMS slab from the barcode microchip and dipping the barcode into the following solutions: PBS, (1:1) PBS: MQ H2O, MQ H2O (2×). […]

T1 sequence (P01116 1-169 isoform P01116-2): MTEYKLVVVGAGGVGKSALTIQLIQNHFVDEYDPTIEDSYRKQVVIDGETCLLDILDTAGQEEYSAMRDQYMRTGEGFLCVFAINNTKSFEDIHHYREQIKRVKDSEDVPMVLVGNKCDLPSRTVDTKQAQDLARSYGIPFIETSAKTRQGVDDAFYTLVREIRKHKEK

Row | Avg F635, Full Centroid | Avg F635, Full Lane | avg F635, Left Part Centroid | avg F635, Middle Part Centroid | avg F635, Right Part Centroid | EC50 | SMILES
1 | 24340 | 22519 | 21889 | 24245 | 26959 |  | CCC(C)[C@@H]1NC(=O)CNC(=O)[C@H](Cc2cnc[nH]2)NC(=O)[C@@H](N)Cc2cn(nn2)CCCC[C@@H](C(=O)NCCOCCOCCOCCOCCOCCC(=O)NCCNC(=O)CCCC[C@@H]2SC[C@@H]3NC(=O)N[C@@H]32)NC(=O)CNC(=O)[C@H](C(C)C)NC1=O (single isomer, unassigned) [Ligand L1b, HGIVG]
2 | 8117 | 7151 | 7137 | 8430 | 8811 | 1.49 ± 0.28 µM | CC(C)[C@@H]1NC(=O)[C@H](CCC(=O)O)NC(=O)CNC(=O)[C@@H](N)Cc2cn(nn2)CCCC[C@@H](C(=O)NCCOCCOCCOCCOCCOCCC(=O)NCCNC(=O)CCCC[C@@H]2SC[C@@H]3NC(=O)N[C@@H]32)NC(=O)[C@@H]2CCCN2C(=O)[C@H](C(C)C)NC1=O (single isomer, unassigned) [Ligand L3a, GEVVP]
3 | 16158 | 15157 | 15070 | 16390 | 17046 | 13.7 ± 4.8 µM | CC(C)[C@@H]1NC(=O)[C@H](CCC(=O)O)NC(=O)CNC(=O)[C@@H](N)Cc2cn(nn2)CCCC[C@@H](C(=O)NCCOCCOCCOCCOCCOCCC(=O)NCCNC(=O)CCCC[C@@H]2SC[C@@H]3NC(=O)N[C@@H]32)NC(=O)[C@@H]2CCCN2C(=O)[C@H](C(C)C)NC1=O (single isomer, unassigned) [Ligand L3b, GEVVP]
4 | 11363 | 10434 | 10179 | 11181 | 12764 | 9.51 ± 2.2 µM | CC(C)[C@@H]1NC(=O)[C@@H](N)Cc2cn(nn2)CCCC[C@@H](C(=O)NCCOCCOCCOCCOCCOCCC(=O)NCCNC(=O)CCCC[C@@H]2SC[C@@H]3NC(=O)N[C@@H]32)NC(=O)[C@H](Cc2ccc(O)cc2)NC(=O)[C@@H]2CCCN2C(=O)[C@H](C(C)C)NC(=O)[C@H](CCC(=O)O)NC1=O (single isomer, unassigned) [Ligand L4a, VEVPY]
5 | 27245 | 25079 | 23307 | 27398 | 31147 | 52.2 ± 22 µM | CC(C)[C@@H]1NC(=O)[C@@H](N)Cc2cn(nn2)CCCC[C@@H](C(=O)NCCOCCOCCOCCOCCOCCC(=O)NCCNC(=O)CCCC[C@@H]2SC[C@@H]3NC(=O)N[C@@H]32)NC(=O)[C@H](Cc2ccc(O)cc2)NC(=O)[C@@H]2CCCN2C(=O)[C@H](C(C)C)NC(=O)[C@H](CCC(=O)O)NC1=O (single isomer, unassigned) [Ligand L4b, VEVPY]
6 | 8341 | 7851 | 7918 | 8920 | 8196 |  | CC(C)[C@@H]1NC(=O)[C@H](CCC(=O)O)NC(=O)[C@H](C(C)C)NC(=O)[C@@H](N)Cc2cn(nn2)CCCC[C@@H](C(=O)NCCOCCOCCOCCOCCOCCC(=O)NCCNC(=O)CCCC[C@@H]2SC[C@@H]3NC(=O)N[C@@H]32)NC(=O)[C@@H]2CCCN2C(=O)[C@H](Cc2ccc(O)cc2)NC1=O (single isomer, unassigned) [Ligand L5a, VEVYP]
7 | 32390 | 31581 | 31947 | 32789 | 32448 |  | CC(C)[C@@H]1NC(=O)[C@H](CCC(=O)O)NC(=O)[C@H](C(C)C)NC(=O)[C@@H](N)Cc2cn(nn2)CCCC[C@@H](C(=O)NCCOCCOCCOCCOCCOCCC(=O)NCCNC(=O)CCCC[C@@H]2SC[C@@H]3NC(=O)N[C@@H]32)NC(=O)[C@@H]2CCCN2C(=O)[C@H](Cc2ccc(O)cc2)NC1=O (single isomer, unassigned) [Ligand L5b, VEVYP]
8 | 36651 | 32992 | 32020 | 37152 | 40918 | 4.22 ± 0.71 µM | CC(C)[C@@H]1NC(=O)[C@@H](N)Cc2cn(nn2)CCCC[C@@H](C(=O)NCCOCCOCCOCCOCCOCCC(=O)NCCNC(=O)CCCC[C@@H]2SC[C@@H]3NC(=O)NC32)NC(=O)[C@H](Cc2ccc(O)cc2)NC(=O)[C@@H]2CCCN2C(=O)[C@H](C(C)C)NC(=O)[C@H](CCC(N)=O)NC1=O (single isomer, unassigned) [Ligand L7a, VQVPY]
9 | 16195 | 14791 | 12956 | 16944 | 18781 | 25.3 ± 8.9 µM | CC(C)[C@@H]1NC(=O)[C@@H](N)Cc2cn(nn2)CCCC[C@@H](C(=O)NCCOCCOCCOCCOCCOCCC(=O)NCCNC(=O)CCCC[C@@H]2SC[C@@H]3NC(=O)NC32)NC(=O)[C@H](Cc2ccc(O)cc2)NC(=O)[C@@H]2CCCN2C(=O)[C@H](C(C)C)NC(=O)[C@H](CCC(N)=O)NC1=O (single isomer, unassigned) [Ligand L7b, VQVPY]
10 | 17836 | 15968 | 15645 | 19382 | 18546 |  | CC(C)[C@@H]1NC(=O)[C@@H](N)Cc2cn(nn2)CCCC[C@@H](C(=O)NCCOCCOCCOCCOCCOCCC(=O)NCCNC(=O)CCCC[C@@H]2SC[C@@H]3NC(=O)N[C@@H]32)NC(=O)[C@H](Cc2ccc(O)cc2)NC(=O)[C@@H]2CCCN2C(=O)[C@H](C(C)C)NC(=O)[C@H]([C@@H](C)O)NC1=O [Ligand L6] (H-[Pra]VTVPY[Lys(N3)][PEG5]-{Ethylenediamine-Biotin}; triazole 1-7)
11 | 53496 | 48537 | 48599 | 54620 | 57411 |  | CC(C)[C@@H]1NC(=O)[C@@H](N)Cc2cn(nn2)CCCC[C@@H](C(=O)NCCOCCOCCOCCOCCOCCC(=O)NCCNC(=O)CCCC[C@@H]2SC[C@@H]3NC(=O)NC32)NC(=O)[C@H](Cc2ccc(O)cc2)NC(=O)[C@@H]2CCCN2C(=O)[C@H](C(C)C)NC(=O)[C@H](CCC(N)=O)NC1=O (stereo partly shown) [Ligand L7, VQVPY]
